Tests used:
[1] = target: T1, Amine oxidase [copper-containing] 3 (Rattus norvegicus, UniProt O08590); assay: (§1) Inhibition Assay: A rat VAP-enzyme 1 (SSAO) activity was measured by a radiochemistry-enzymatic assay using 14C-benzylamine as an artificial substrate. An enzyme suspension prepared from CHO (Chinese Hamster Ovary) cells stably expressing a rat VAP-enzyme 1 (SSAO) was preincubated with the compound of the present invention in a 96-well microplate at room temperature for 30 minutes. Subsequently, the enzyme suspension was incubated with 14C-benzylamine (a final concentration of 1×10−5 mol/L) to a final volume of […] at 37° C. for 1 hour. The enzymatic reaction was stopped by the addition of 2 mol/L (50 μL) of citric acid. The oxidation products were extracted directly in a 200-μL toluene scintillator, and the radioactivity was measured with a scintillation spectrometer.
T1 sequence (O08590 whole entry): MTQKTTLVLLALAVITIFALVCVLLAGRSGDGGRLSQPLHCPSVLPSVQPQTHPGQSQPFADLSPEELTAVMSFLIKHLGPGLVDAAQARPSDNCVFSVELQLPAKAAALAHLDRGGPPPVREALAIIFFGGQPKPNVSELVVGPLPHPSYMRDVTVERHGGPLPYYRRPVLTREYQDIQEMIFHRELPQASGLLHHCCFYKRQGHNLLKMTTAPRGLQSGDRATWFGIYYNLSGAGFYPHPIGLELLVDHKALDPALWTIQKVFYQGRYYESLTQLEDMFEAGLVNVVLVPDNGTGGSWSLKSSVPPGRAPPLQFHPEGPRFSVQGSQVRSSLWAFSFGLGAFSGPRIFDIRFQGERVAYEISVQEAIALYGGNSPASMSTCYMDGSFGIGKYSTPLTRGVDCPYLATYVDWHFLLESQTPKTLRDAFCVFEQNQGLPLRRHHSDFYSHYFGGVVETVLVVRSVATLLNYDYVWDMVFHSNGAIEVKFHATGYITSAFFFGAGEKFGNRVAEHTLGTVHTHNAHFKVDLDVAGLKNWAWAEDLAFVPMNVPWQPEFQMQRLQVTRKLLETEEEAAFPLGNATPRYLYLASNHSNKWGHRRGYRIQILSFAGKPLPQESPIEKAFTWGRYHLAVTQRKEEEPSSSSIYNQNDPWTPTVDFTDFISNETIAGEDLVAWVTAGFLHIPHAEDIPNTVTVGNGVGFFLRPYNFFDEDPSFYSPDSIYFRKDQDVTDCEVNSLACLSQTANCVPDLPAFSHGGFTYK

[2] = target: T2, Amine oxidase [copper-containing] 3 (Homo sapiens, UniProt Q16853); assay: as §1, with “human VAP-1 enzyme” for “rat VAP-enzyme 1”
T2 sequence (Q16853 whole entry): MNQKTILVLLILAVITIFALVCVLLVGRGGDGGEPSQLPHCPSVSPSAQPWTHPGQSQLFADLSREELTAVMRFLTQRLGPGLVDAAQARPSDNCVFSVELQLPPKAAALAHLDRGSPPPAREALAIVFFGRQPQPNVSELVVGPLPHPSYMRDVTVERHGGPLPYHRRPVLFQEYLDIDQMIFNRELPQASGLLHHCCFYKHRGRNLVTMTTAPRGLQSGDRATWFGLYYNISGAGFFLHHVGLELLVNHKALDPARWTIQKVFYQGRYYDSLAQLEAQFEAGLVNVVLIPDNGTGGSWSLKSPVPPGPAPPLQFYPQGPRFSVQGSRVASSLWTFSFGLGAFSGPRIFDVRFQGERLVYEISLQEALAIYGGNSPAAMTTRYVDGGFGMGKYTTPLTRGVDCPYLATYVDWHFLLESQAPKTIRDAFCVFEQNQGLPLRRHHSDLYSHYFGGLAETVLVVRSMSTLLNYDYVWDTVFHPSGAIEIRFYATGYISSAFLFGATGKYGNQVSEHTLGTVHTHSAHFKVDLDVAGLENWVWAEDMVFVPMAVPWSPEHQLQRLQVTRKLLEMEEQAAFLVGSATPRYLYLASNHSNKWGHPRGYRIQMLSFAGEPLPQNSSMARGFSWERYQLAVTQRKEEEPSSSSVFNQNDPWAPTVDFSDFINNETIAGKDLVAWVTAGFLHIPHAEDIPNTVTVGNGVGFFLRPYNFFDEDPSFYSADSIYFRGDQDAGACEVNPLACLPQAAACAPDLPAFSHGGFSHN

Row | IC50 [1] [nM] | IC50 [2] [nM] | Structure (SMILES)
1 | 61 |  | C[C@@H]1CN(c2ncc(-c3cccc(CN(C)C(=O)CN)c3)cn2)C[C@H](C)O1
2 | 5.2 | 9.4 | Cc1cc(CCC(=O)O)cnc1N1CCN(c2ncc(-c3cccc(CN(C)C(=O)CN)c3)cn2)CC1

Reference: ChEMBL document CHEMBL3639058, “Glycine compound” (2014)
